# Results reported in patent US9428476B2, “S-imino-S-oxo-iminothiadiazine compounds as BACE inhibitors, compositions, and their use” (Merck Sharp & Dohme Corp., priority 2013, dated 2016).
# Columns and labels:
# [1] = target: purified human autoBACE-2 (Homo sapiens (Human), UniProt Q9Y5Z0); experiment: BACE-2 Assay (BACE-HTRF assay); assay type: biochemical; conditions: Ki calculated from IC50 using the Cheng-Prusoff equation; QSY7-EISEVNLDAEFC-Eu-amide substrate, pH 5.0; read-out: BACE2 Ki
# Protocol: Inhibitor IC50s at purified human autoBACE-2 are determined in a time-resolved endpoint proteolysis assay that measures hydrolysis of the QSY7-EISEVNLDAEFC-Eu-amide FRET peptide substrate (BACE-HTRF assay). BACE-mediated hydrolysis of this peptide results in an increase in relative fluorescence (RFU) at 620 nm after excitation with 320 nm light Inhibitor compounds, prepared at 3× the desired final concentration in 1×BACE assay buffer (20 mM sodium acetate pH 5.0, 10% glycerol, 0.1% Brij-35) supplemented with 7.5% DMSO are pre-incubated with an equal volume of autoBACE-2 enzyme diluted in 1×BACE assay buffer (final enzyme concentration 1 nM) in black 384-well NUNC plates for 30 minutes at 30° C. […] Following laser excitation of sample wells at 320 nm, the fluorescence signal at 620 nm is collected for 400 ms following a 50 μs delay on a RUBYstar HTRF plate reader (BMG Labtechnologies). […] IC50, are determined by nonlinear regression analysis (sigmoidal dose response, variable slope) of percent inhibition data with minimum and maximum values set to 0 and 100 percent respectively. […] The Ki values are calculated from the IC50 using the Cheng-Prusoff equation.
# [2] = target: soluble human BACE1 catalytic domain (Homo sapiens (Human), UniProt P56817); experiment: BACE1 HTRF FRET Assay; assay type: biochemical; conditions: Ki calculated from IC50 using the Cheng-Prusoff equation; QSY7-APPswe-Eu substrate, pH 5.0
# soluble human BACE1 catalytic domain, sequence (P56817 75-416): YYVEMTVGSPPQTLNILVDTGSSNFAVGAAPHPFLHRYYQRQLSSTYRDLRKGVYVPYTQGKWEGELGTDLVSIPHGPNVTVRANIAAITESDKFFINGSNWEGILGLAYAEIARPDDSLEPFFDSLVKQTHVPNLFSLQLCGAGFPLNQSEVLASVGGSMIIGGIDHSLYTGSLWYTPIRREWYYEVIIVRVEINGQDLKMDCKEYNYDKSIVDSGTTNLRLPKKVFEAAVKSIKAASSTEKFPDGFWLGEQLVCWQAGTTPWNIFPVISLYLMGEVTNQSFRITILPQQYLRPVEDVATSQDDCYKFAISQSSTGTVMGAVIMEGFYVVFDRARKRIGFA
# From the text: Na^+-Acetate pH 5.0; 1% Brij-35; Glycerol; Dimethyl Sulfoxide (DMSO); Recombinant human soluble BACE1 catalytic domain (>95% pure); APP Swedish mutant peptide substrate (QSY7-APP^swe-Eu): QSY7-EISEVNLDAEFC-Europium-amide.
# A homogeneous time-resolved FRET assay can be used to determine IC50 values for inhibitors of the soluble human BACE1 catalytic domain. This assay monitors the increase of 620 nm fluorescence that resulted from BACE1 cleavage of an APPswedish APP^swe mutant peptide FRET substrate (QSY7-EISEVNLDAEFC-Europium-amide). This substrate contains an N-terminal QSY7 moiety that serves as a quencher of the C-terminal Europium fluorophore (620 nm Em). In the absence of enzyme activity, 620 nm fluorescence is low in the assay and increased linearly over 3 hours in the presence of uninhibited BACE1 enzyme Inhibition of BACE1 cleavage of the QSY7-APP^swe-Eu substrate by inhibitors is manifested as a suppression of 620 nm fluorescence.
# Varying concentrations of inhibitors at 3× the final desired concentration in a volume of 10 ul are preincubated with purified human BACE1 catalytic domain (3 nM in 10 μl) for 30 minutes at 30° C. in reaction buffer containing 20 mM Na-Acetate pH 5.0, 10% glycerol, 0.1% Brij-35 and 7.5% DSMO. […]
# purified human autoBACE-2, sequence (Q9Y5Z0 63-473 limits assumed): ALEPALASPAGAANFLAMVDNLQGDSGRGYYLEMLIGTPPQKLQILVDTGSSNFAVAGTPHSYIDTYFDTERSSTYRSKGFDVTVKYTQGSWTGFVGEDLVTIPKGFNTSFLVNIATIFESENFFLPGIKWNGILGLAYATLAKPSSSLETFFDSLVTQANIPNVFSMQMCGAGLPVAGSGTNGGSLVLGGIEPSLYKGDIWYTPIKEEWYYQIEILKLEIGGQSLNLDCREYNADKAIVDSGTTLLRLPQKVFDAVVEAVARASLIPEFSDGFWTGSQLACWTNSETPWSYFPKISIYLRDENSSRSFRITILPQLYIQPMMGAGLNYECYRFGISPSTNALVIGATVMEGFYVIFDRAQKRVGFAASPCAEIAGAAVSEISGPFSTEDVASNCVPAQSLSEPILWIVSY
Ki [1] [nM],Ki [2] [nM],Compound
3,8,CCN=S1(=O)C[C@@](C)(c2cc(NC(=O)c3ccc(Cl)cn3)ccc2F)NC(=N)N1C (stereo partly shown) [Example 5]
3,10,CCN1C(=N)N[C@](C)(c2cc(NC(=O)c3ccc(Cl)cn3)ccc2F)CS1(=O)=NC (stereo partly shown) [Example 6]
